The target in this test is T1, PE-labeled human PD-L1-Ig binding to Jurkat cell line over-expressing human PD-1 (Jurkat-PD-1) (Homo sapiens, UniProt Q15116).
T1 construct: expressed in transfected cells; host or cells: Jurkat
The test can be described thus: Jurkat-PD-1 Cell Binding High-Content Screening Assay (CBA): Method 1. The following applies: Jurkat-hPD-1 cells, PE-labeled PD-L1-Ig 20 nM final; read-out: Jurkat HPDL1 PD1 IC50 (uM) (Method 1).

Bridge positions count the residues as written; N and C are the ends. Square brackets hold non-standard residues; d marks the D form. Peptide text beside a SMILES is read from it. * marks the point of attachment. ξ: configuration not given here. Phe(4-COOH) = N[C@@H](Cc1ccc(C(=O)O)cc1)C(=O)O; Phe(4-CH2NH2) = NCc1ccc(C[C@H](N)C(=O)O)cc1; Bip = N[C@@H](Cc1ccc(-c2ccccc2)cc1)C(=O)O; Phe(3-OMe) = COc1cccc(C[C@H](N)C(=O)O)c1; Phe(3-Me) = Cc1cccc(C[C@H](N)C(=O)O)c1; Val(3-OH) = CC(C)(O)[C@H](N)C(=O)O; aIle = CC[C@@H](C)[C@H](N)C(=O)O; 3Pal = N[C@@H](Cc1cccnc1)C(=O)O; 4Pal = N[C@@H](Cc1ccncc1)C(=O)O; Cha = N[C@@H](CC1CCCCC1)C(=O)O; Cit = NC(=O)NCCC[C@H](N)C(=O)O; Ile(3ξ) = CCC(C)[C@H](N)C(=O)O; Thr(3ξ) = CC(O)[C@H](N)C(=O)O; NMeAbu = CC[C@H](NC)C(=O)O; Carboxymethyl = O=C(O)C*; NMeA = CN[C@@H](C)C(=O)O; Nle = CCCC[C@H](N)C(=O)O; Orn = NCCC[C@H](N)C(=O)O; Dab = NCC[C@H](N)C(=O)O

T1 sequence (Q15116 25-288): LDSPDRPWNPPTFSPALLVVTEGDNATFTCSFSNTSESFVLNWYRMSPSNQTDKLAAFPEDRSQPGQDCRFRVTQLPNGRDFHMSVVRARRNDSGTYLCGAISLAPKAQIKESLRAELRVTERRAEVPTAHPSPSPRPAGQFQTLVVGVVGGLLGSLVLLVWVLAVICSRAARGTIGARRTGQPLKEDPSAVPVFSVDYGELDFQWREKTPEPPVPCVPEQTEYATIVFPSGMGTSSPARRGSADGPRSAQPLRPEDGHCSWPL

Turning to `CC(C)C[C@@H]1NC(=O)[C@H](CCCNC(=N)N)NC(=O)[C@@H](CC(C)C)NC(=O)[C@H](C)N(C)C(=O)[C@H](CCCNC(=N)N)NC(=O)[C@H](Cc2ccc(-c3ccccc3)cc2)NC(=O)[C@H](C(C)C)NC(=O)[C@H](Cc2c[nH]c3ccccc23)NC(=O)[C@H](CC(=O)O)NC(=O)[C@H](Cc2ccc(O)cc2)NC(=O)[C@H](CCC(N)=O)NC(=O)CSC[C@@H](C(=O)N[C@@H](C)C(N)=O)NC(=O)[C@H]([C@@H](C)O)NC(=O)[C@H](C(C)C)NC1=O` [Compound 1046] ({CH2CO}-QYDWV[Bip]R[NMeA][dL]RLVTCA-NH2; thioether N-14), the IC50 amounted to 0.1 µM.
In the case of `CCCC[C@@H]1NC(=O)[C@H](Cc2c[nH]c3ccccc23)NC(=O)[C@H](CC(=O)O)NC(=O)[C@H](Cc2ccc(OCC(=O)O)cc2)NC(=O)[C@H](C(C)O)NC(=O)CSC[C@@H](C(=O)N[C@@H](CC(N)=O)C(=O)O)NC(=O)[C@H](CO)NC(=O)[C@H](C(C)C)NC(=O)[C@H](CC(C)C)NC(=O)[C@H](CCN)NC(=O)[C@@H](CC(C)C)NC(=O)[C@H](C)N(C)C(=O)[C@H](C(C)CC)NC(=O)[C@H](Cc2ccc(-c3ccccc3)cc2)NC1=O` (stereo partly drawn) [Compound 2221] ({CH2CO}-[Thr(3ξ)]Y(Carboxymethyl)DW[Nle][Bip][Ile(3ξ)][NMeA][dL][Dab]LVSCN-OH; thioether N-14), the IC50 was found to be 0.06 µM.
Turning to `CC(C)C[C@@H]1NC(=O)[C@H](CCN)NC(=O)[C@@H](CC(C)C)NC(=O)[C@H](C)N(C)C(=O)[C@H](CCCNC(N)=O)NC(=O)[C@H](Cc2ccc(-c3ccccc3)cc2)NC(=O)[C@H](C(C)C)NC(=O)[C@H](Cc2c[nH]c3ccccc23)NC(=O)[C@H](CC(=O)O)NC(=O)[C@H](Cc2ccc(O)cc2)NC(=O)[C@H](CC(N)=O)NC(=O)CSC[C@@H](C(=O)N[C@@H](C)C(N)=O)NC(=O)[C@H](CCCN)NC(=O)[C@H](C(C)C)NC1=O` [Compound 1232] ({CH2CO}-NYDWV[Bip][Cit][NMeA][dL][Dab]LV[Orn]CA-NH2; thioether N-14), the IC50 was 0.12 µM.
On to `CC(C)C[C@@H]1NC(=O)[C@H](CCCNC(=N)N)NC(=O)[C@@H](CC(C)C)NC(=O)[C@H](C)N(C)C(=O)[C@H](CCC(=O)O)NC(=O)[C@H](Cc2ccc(-c3ccccc3)cc2)NC(=O)[C@H](C(C)C)NC(=O)[C@H](Cc2c[nH]c3ccccc23)NC(=O)[C@H](CC(=O)O)NC(=O)[C@H](Cc2ccc(O)cc2)NC(=O)[C@H](Cc2ccccc2)NC(=O)CSC[C@@H](C(=O)N[C@@H](CCC(=O)O)C(N)=O)NC(=O)[C@H]([C@@H](C)O)NC(=O)[C@H](C(C)C)NC1=O` [Compound 1135] ({CH2CO}-FYDWV[Bip]E[NMeA][dL]RLVTCE-NH2; thioether N-14), for which the IC50 stood at 0.14 µM.
For `Cc1cccc(C[C@@H]2NC(=O)[C@H](CC(=O)O)NC(=O)[C@H](Cc3ccc(C(=O)O)cc3)NC(=O)[C@H](Cc3ccc(OCC(=O)O)cc3)NC(=O)CSC[C@@H](C(=O)N[C@H](CC(N)=O)C(N)=O)NC(=O)[C@H](CO)NC(=O)[C@H](C(C)C)NC(=O)[C@H](CC(C)C)NC(=O)[C@H](CCN)NC(=O)[C@@H](CC(C)C)NC(=O)[C@H](C)N(C)C(=O)[C@H](C(C)C)NC(=O)[C@H](Cc3ccc(-c4ccccc4)cc3)NC(=O)[C@H](CC(C)C)NC2=O)c1` [Compound 2112] ({CH2CO}-Y(Carboxymethyl)[Phe(4-COOH)]D[Phe(3-Me)]L[Bip]V[NMeA][dL][Dab]LVSC[dN]-NH2; thioether N-14), the IC50 was 0.02 µM.
As for `Cc1cccc(C[C@@H]2NC(=O)[C@H](CC(=O)O)NC(=O)[C@H](Cc3ccc(OCC(=O)O)cc3)NC(=O)[C@H](Cc3ccc(OCC(=O)O)cc3)NC(=O)CSC[C@@H](C(N)=O)NC(=O)[C@H](CCC(=O)O)NC(=O)[C@H](C(C)C)NC(=O)[C@H](CC3CCCCC3)NC(=O)[C@H](CCN)NC(=O)[C@@H](CC(C)C)NC(=O)[C@H](C)N(C)C(=O)[C@H](Cc3ccc(OCC(=O)O)cc3)NC(=O)[C@H](Cc3ccc(-c4ccccc4)cc3)NC(=O)[C@H](Cc3ccc(OCC(=O)O)cc3)NC2=O)c1` [Compound 1657] ({CH2CO}-Y(Carboxymethyl)Y(Carboxymethyl)D[Phe(3-Me)]Y(Carboxymethyl)[Bip]Y(Carboxymethyl)[NMeA][dL][Dab][Cha]VEC-NH2; thioether N-14), the half-inhibitory concentration (IC50) turned out to be 0.05 µM.
Regarding `CC[C@@H](C)[C@@H]1NC(=O)[C@H](Cc2ccc(-c3ccccc3)cc2)NC(=O)[C@H](CC(C)C)NC(=O)[C@H](Cc2cccc(C)c2)NC(=O)[C@H](CC(=O)O)NC(=O)[C@H](Cc2ccc(C(=O)O)cc2)NC(=O)[C@H](Cc2ccc(OCC(=O)O)cc2)NC(=O)CSC[C@@H](C(N)=O)NC(=O)[C@H](CO)NC(=O)[C@H](C(C)C)NC(=O)[C@H](CC(C)C)NC(=O)[C@H](CC(N)=O)NC(=O)[C@@H](CC(C)C)NC(=O)[C@H](C)N(C)C1=O` [Compound 1639] ({CH2CO}-Y(Carboxymethyl)[Phe(4-COOH)]D[Phe(3-Me)]L[Bip][aIle][NMeA][dL]NLVSC-NH2; thioether N-14), the IC50 was 0.06 µM.
On to `Cc1cccc(C[C@@H]2NC(=O)[C@H](CC(=O)O)NC(=O)[C@H](Cc3ccc(OCC(=O)O)cc3)NC(=O)[C@H](Cc3ccncc3)NC(=O)CSC[C@@H](C(=O)N[C@@H](CCN)C(N)=O)NC(=O)[C@H](CO)NC(=O)[C@H](C(C)(C)O)NC(=O)[C@H](CC3CCCCC3)NC(=O)[C@H](CCN)NC(=O)[C@@H](CC(C)C)NC(=O)[C@H](C)N(C)C(=O)[C@H](Cc3ccc(OCC(=O)O)cc3)NC(=O)[C@H](Cc3ccc(-c4ccccc4)cc3)NC(=O)[C@H](Cc3ccc(OCC(=O)O)cc3)NC2=O)c1` [Compound 2135] ({CH2CO}-[4Pal]Y(Carboxymethyl)D[Phe(3-Me)]Y(Carboxymethyl)[Bip]Y(Carboxymethyl)[NMeA][dL][Dab][Cha][Val(3-OH)]SC[Dab]-NH2; thioether N-14), for which the IC50 came to 0.01 µM.
Consider `CCNC(=O)[C@H](CCN)NC(=O)[C@@H]1CSCC(=O)N[C@@H](Cc2cccnc2)C(=O)N[C@@H](Cc2ccc(OCC(=O)O)cc2)C(=O)N[C@@H](CC(=O)O)C(=O)N[C@@H](Cc2cccc(C)c2)C(=O)N[C@@H](Cc2ccc(OCC(=O)O)cc2)C(=O)N[C@@H](Cc2ccc(-c3ccccc3)cc2)C(=O)N[C@@H](Cc2ccc(OCC(=O)O)cc2)C(=O)N(C)[C@@H](C)C(=O)N[C@H](CC(C)C)C(=O)N[C@@H](CCN)C(=O)N[C@@H](CC2CCCCC2)C(=O)N[C@@H](C(C)C)C(=O)N[C@@H]([C@@H](C)O)C(=O)N1` [Compound 1856] ({CH2CO}-[3Pal]Y(Carboxymethyl)D[Phe(3-Me)]Y(Carboxymethyl)[Bip]Y(Carboxymethyl)[NMeA][dL][Dab][Cha]VTC[Dab]-NHEt; thioether N-14), for which the IC50 was determined as 0.02 µM.
`COc1cccc(C[C@@H]2NC(=O)[C@H](Cc3ccccc3)NC(=O)CSC[C@@H](C(=O)NCC(N)=O)NC(=O)[C@H](CO)NC(=O)[C@H](C(C)C)NC(=O)[C@H](CC(C)C)NC(=O)[C@H](CC(N)=O)NC(=O)[C@@H](CC(C)C)NC(=O)[C@H](C)N(C)C(=O)[C@H](C(C)C)NC(=O)[C@H](Cc3ccc(-c4ccccc4)cc3)NC(=O)[C@H](CC(C)C)NC(=O)[C@H](Cc3c[nH]c4ccccc34)NC(=O)[C@H](CC(=O)O)NC2=O)c1` [Compound 1521] ({CH2CO}-F[Phe(3-OMe)]DWL[Bip]V[NMeA][dL]NLVSCG-NH2; thioether N-14): the 50% inhibitory concentration (IC50) was 0.07 µM.
As to `CC(C)C[C@@H]1NC(=O)[C@H](Cc2c[nH]c3ccccc23)NC(=O)[C@H](CC(=O)O)NC(=O)[C@H](Cc2ccc(O)cc2)NC(=O)[C@H](Cc2ccccc2)NC(=O)CSC[C@@H](C(=O)N[C@@H](C)C(N)=O)NC(=O)[C@H](CO)NC(=O)[C@H](C(C)C)NC(=O)[C@H](CC(C)C)NC(=O)[C@H](CCC(=O)O)NC(=O)[C@@H](C)NC(=O)[C@H](C)N(C)C(=O)[C@H](CCC(=O)O)NC(=O)[C@H](Cc2ccc(-c3ccccc3)cc2)NC1=O` [Compound 1792] ({CH2CO}-FYDWL[Bip]E[NMeA][dA]ELVSCA-NH2; thioether N-14), the IC50 was 0.13 µM.
In the case of `CC(C)C[C@H]1NC(=O)[C@H](C)N(C)C(=O)[C@H](Cc2ccc(CN)cc2)NC(=O)[C@H](Cc2ccc(-c3ccccc3)cc2)NC(=O)[C@H](C(C)C)NC(=O)[C@H](Cc2c[nH]c3ccccc23)NC(=O)[C@H](CC(=O)O)NC(=O)[C@H](Cc2ccc(O)cc2)NC(=O)[C@H](Cc2ccncc2)NC(=O)CSC[C@@H](C(=O)N[C@@H](C)C(N)=O)NC(=O)[C@H](C(C)O)NC(=O)[C@H](C(C)C)NC(=O)[C@H](CC2CCCCC2)NC(=O)[C@H](CC(N)=O)NC1=O` (stereo partly drawn) [Compound 2048] ({CH2CO}-[4Pal]YDWV[Bip][Phe(4-CH2NH2)][NMeA][dL]N[Cha]V[Thr(3ξ)]CA-NH2; thioether N-14), the IC50 is 0.03 µM.
Consider `CC(=O)NCCCC[C@@H]1NC(=O)[C@H](Cc2ccc(-c3ccccc3)cc2)NC(=O)[C@H](Cc2ccc(O)cc2)NC(=O)[C@H](Cc2cccc(C)c2)NC(=O)[C@H](CC(=O)O)NC(=O)[C@H](Cc2ccc(OCC(=O)O)cc2)NC(=O)[C@H](C(C)O)NC(=O)CSC[C@@H](C(N)=O)NC(=O)[C@H](C(C)O)NC(=O)[C@H](C(C)C)NC(=O)[C@H](CC2CCCCC2)NC(=O)[C@H](CCN)NC(=O)[C@@H](CC(C)C)NC(=O)[C@H](C)N(C)C1=O` (stereo partly drawn) [Compound 2255] ({CH2CO}-[Thr(3ξ)]Y(Carboxymethyl)D[Phe(3-Me)]Y[Bip]K(Ac)[NMeA][dL][Dab][Cha]V[Thr(3ξ)]C-NH2; thioether N-14), for which the IC50 came to 0.06 µM.
As for `CC[C@H]1C(=O)N[C@H](CC(C)C)C(=O)N[C@@H](CCN)C(=O)N[C@@H](CC2CCCCC2)C(=O)N[C@@H](C(C)(C)O)C(=O)N[C@@H](CO)C(=O)N[C@H](C(=O)N[C@@H](CCN)C(N)=O)CSCC(=O)N[C@@H](Cc2ccncc2)C(=O)N[C@@H](Cc2ccc(OCC(=O)O)cc2)C(=O)N[C@@H](CC(=O)O)C(=O)N[C@@H](Cc2cccc(C)c2)C(=O)N[C@@H](Cc2ccc(OCC(=O)O)cc2)C(=O)N[C@@H](Cc2ccc(-c3ccccc3)cc2)C(=O)N[C@@H](Cc2ccc(OCC(=O)O)cc2)C(=O)N1C` [Compound 1837] ({CH2CO}-[4Pal]Y(Carboxymethyl)D[Phe(3-Me)]Y(Carboxymethyl)[Bip]Y(Carboxymethyl)[NMeAbu][dL][Dab][Cha][Val(3-OH)]SC[Dab]-NH2; thioether N-14), the figure is 0.47 µM.

For orientation: IC50 means the point on the concentration scale where inhibition reaches its midpoint.
